Test results published in US6750246B1, “C-4 carbonate taxanes” (Bristol-Myers Squibb Company, priority 2000, dated 2004).

Experiments:
[1] = test system: A2780 human ovarian tumor xenograft; assay: In vivo oral antitumor activity vs Sc A2780; conditions: po gavage; for Oral Efficacy vs. Sc A2780 Log Cell Kill: q2d x 5, at optimal or maximum tolerated dose of Table III (mg/kg per administration), log cell kill = (T-C)/(TVDT x 3.32); for Oral Efficacy vs. Sc A2780 (Cures/Treated): q2d x 5, same dose as log cell kill, cure = tumor of 35 mg or less at termination
Protocol: The experiments were carried out using athymic (“nude”) mice. […] The compound was administered at the dose indicated in Table III, namely, once daily every other day for five treatments (i.e. q2dx5).

human or animal models = conditions: cited from earlier work; for Oral activity in human or animal models: prior art
[2] = administered orally; quote from WO98/53811; cited from earlier work
human tumor xenografts = assay: Orally administered paclitaxel against human tumor xenografts; conditions: oral; athymic mice or athymic rats
tumors in mice = conditions: AACR 1999 abstract 1905; cited from earlier work

| Compound | Oral Efficacy vs. Sc A2780 Log Cell Kill [1] | Oral Efficacy vs. Sc A2780 (Cures/Treated) [1] | other results |
| --- | --- | --- | --- |
| COC(=O)O[C@@]12CO[C@@H]1C[C@H](O)[C@@]1(C)C(=O)[C@H](OC(C)=O)C3=C(C)[C@@H](OC(=O)[C@H](O)[C@@H](NC(=O)CC(C)(C)C)C(C)(C)C)C[C@@](O)([C@@H](OC(=O)c4ccccc4)[C@H]21)C3(C)C [If, 3′-tert-Butyl-4-deacetyl-3′-dephenyl-3′-N-debenzoyl-3′-N-neopentylcarbonyl-4-O-methoxycarbonyl-paclitaxel] | 1.8 | 0/8 |  |
| COC(=O)O[C@@]12COC1C[C@H](O)[C@@]1(C)C(=O)[C@H](OC(C)=O)C3=C(C)[C@@H](OC(=O)[C@H](O)[C@@H](NC(=O)OC(C)(C)C)C(C)(C)C)C[C@@](O)([C@@H](OC(=O)c4ccccc4)C21)C3(C)C (some centres unmarked) [Ia, 3′-tert-Butyl-3′-N-tert-butyloxycarbonyl-4-deacetyl-3′-dephenyl-3′-N-debenzoyl-4-O-methoxycarbonyl-paclitaxel] | 4.4 | 0/8 |  |
| CC(=O)O[C@@]12CO[C@@H]1C[C@H](O)[C@@]1(C)C(=O)[C@H](O)C3=C(C)[C@@H](OC(=O)[C@H](O)[C@@H](NC(=O)OC(C)(C)C)c4ccccc4)C[C@@](O)([C@@H](OC(=O)c4ccccc4)[C@H]21)C3(C)C [TAXOTERE®, docetaxel] |  |  | Oral activity in human or animal models (human or animal models): no oral activity |
| 3′-N-Cyclobutyl-4-deacetyl-3′-N-debenzoyl-4-O-methoxycarbonyi-paciitaxel [Id] | 4.1 | 0/8 |  |
| COC(=O)O[C@@]12CO[C@@H]1C[C@H](O)[C@@]1(C)C(=O)[C@H](OC(C)=O)C3=C(C)[C@@H](OC(=O)[C@H](O)[C@@H](NC(=O)OC(C)(C)C)c4ccccc4)C[C@@](O)([C@@H](OC(=O)c4ccccc4)[C@H]21)C3(C)C [Ig, 4-Deacetyl-3′-N-debenzoyl-3′-N-tertbutoxycarbonyl 4-O-methoxycarbonyl-paclitaxel] | 0.9 | 0/8 |  |
| COC(=O)O[C@@]12CO[C@@H]1C[C@H](O)[C@@]1(C)C(=O)[C@H](OC(C)=O)C3=C(C)[C@@H](OC(=O)[C@H](O)[C@@H](NC(=O)C4CCC4)C(C)(C)C)C[C@@](O)([C@@H](OC(=O)c4ccccc4)[C@H]21)C3(C)C [Ij, 3′-N-Debenzoyl-3′-N-cyclobutylcarbonyl-3′-dephenyl-3′-tert-butyl-4-deacetyl-4-methoxycarbonyl Paclitaxel] | 2.1 | 0/8 |  |
| COC(=O)OC12COC1CC(O)C1(C)C(=O)C(OC(C)=O)C3=C(C)C(OC(=O)C(O)C(NC(=O)OC(C)(C)C)C(C)C)CC(O)(C(OC(=O)c4ccccc4)C21)C3(C)C (centres unmarked) [Ib, 3′-N-tert-Butyloxycarbonyl-4-deacetyl-3′-dephenyl-3′-N-debenzoyl-3′-isopropyl-4-O-methoxycarbonyl-paclitaxel] | 3.0 | 1/8 |  |
| CCCCOC(=O)NC(c1ccccc1)C(O)C(=O)OC1CC2(O)C(OC(=O)c3ccccc3)C3C4(OC(=O)OC)COC4CC(O)C3(C)C(=O)C(OC(C)=O)C(=C1C)C2(C)C (centres unmarked) [Ih, 4-Deacetyl-3′-N-debenzoyl-3′-N-nbutoxycarbonyl-4-O-methoxycarbonyl-paclitaxel] | 1.0 | 1/8 |  |
| CC(=O)O[C@H]1C(=O)[C@@]2(C)[C@H]([C@H](OC(=O)c3ccccc3)[C@]3(O)C[C@H](OC(=O)[C@H](O)[C@@H](NC(=O)c4ccccc4)c4ccccc4)C(C)=C1C3(C)C)[C@]1(OC(C)=O)CO[C@@H]1C[C@@H]2O [paclitaxel] |  |  | Oral absorption [2]: less than 1%; Activity of orally administered paclitaxel against human tumor xenografts (human tumor xenografts): unsuccessful; Antitumor activity on oral administration (human or animal models; oral, up to 160 mg/kg/day, Suffness et al.): no evidence of antitumor activity; Oral activity in human or animal models (human or animal models): no oral activity |
| CC(=O)O[C@H]1C(=O)[C@@]2(C)[C@H]([C@H](OC(=O)c3ccccc3)[C@]34OC(=O)O[C@H]3[C@H](OC(=O)[C@H](O)[C@H](CC(C)C)NC(=O)OC(C)(C)C)C(C)=C1C4(C)C)[C@]1(OC(C)=O)CO[C@@H]1C[C@@H]2O [IDN-5109] |  |  | Oral activity against tumors in mice (tumors in mice): oral activity against tumors in mice |
| COC(=O)OC12COC1CC(O)C1(C)C(=O)C(OC(C)=O)C3=C(C)C(OC(=O)C(O)C(NC(=O)OC4CCCCC4)C(C)(C)C)CC(O)(C(OC(=O)c4ccccc4)C21)C3(C)C (centres unmarked) [Ie, 3′-tert-Butyl-3′-N-cyclohexyloxycarbonyl-4-deacetyl-3′-dephenyl-3′-N-debenzoyl-4-O-methoxycarbonyl-paclitaxel] | 1.5 | 0/8 |  |
| COC(=O)OC12COC1CC(O)C1(C)C(=O)C(OC(C)=O)C3=C(C)C(OC(=O)C(O)C(NC(=O)CC(C)(C)C)c4ccccc4)CC(O)(C(OC(=O)c4ccccc4)C21)C3(C)C (centres unmarked) [Ic, 3′-N-Neopentylcarbonyl-4-deacetyl-3′-N-debenzoyl-4-O-methoxycarbonyl-paclitaxel] | 3.8 | 0/8 |  |
| COC(=O)OC12COC1CC(O)C1(C)C(=O)C(OC(C)=O)C3=C(C)C(OC(=O)C(O)C(NC(=O)c4ccco4)C(C)(C)C)CC(O)(C(OC(=O)c4ccccc4)C21)C3(C)C (centres unmarked) [Ik, 3′-N-Debenzoyl-3′-N-(2-furoyl)-3′-dephenyl-3′-tert-butyl-4-deacetyl-4-methoxycarbonyl Paclitaxel] | 2.2 | 0/8 |  |
